Reference: paper PMC6018403 (Frontiers in Pharmacology, 2018)

Experiment: Multi-component pharmacokinetic study of GQD, GQD-GC and single herb extracts in rats (plasma, LC/MS/MS)
Type: in vivo, Sprague-Dawley rats
Conditions: male, Sprague-Dawley, rat, plasma, po, 9.45 g/kg, GG (Ge-Gen) group: rats, oral extract 9.45 g/kg, plasma; read-out: AUClast
Experimental: Male Sprague-Dawley rats (220–250 g) were used for PK study, and the details were described in Supplemental Data. All procedures were in accordance with the National Institutes of Health Guide for the Care and Use of Laboratory Animals.
For PK study of GQD and its component herbs, rats were randomly divided into six groups (n = 10 for each group) before oral administration.
All blood samples were immediately centrifuged at 6,000 rpm (4°C) for 20 min to obtain plasma. The plasma samples were stored at −80°C.
A Finnigan TSQ Quantum triple quadrupole mass spectrometer was connected to a Surveyor HPLC via ESI interface (ThermoFisher). High purity nitrogen was used as the sheath and auxiliary gas; Ultra-high purity argon was used as the collision gas (1.5 mTorr). Q1 and Q3 quadrupoles were set at unit resolution. […] The column temperature was 40°C. The mobile phase consisted of acetonitrile containing 2% (v/v) methanol (A) and water containing 0.1% (v/v) formic acid (B). […] An aliquot of 5 μL was injected for analysis. UV spectra were obtained by scanning from 200 to 400 nm. The mass spectrometer was operated in the (+)-ESI mode. The optimized parameters were as follows: sheath gas (N2), 50 arb; auxiliary gas (N2), 5 arb; spray voltage, 4.0 kV; capillary temperature, 330°C; collision energy, see Table S1. Analytes were detected in the selected reaction monitoring (SRM) mode. Data were processed by Xcalibur 2.0.7 software (ThermoFisher).
LC/MS/MS calibration and quantitation data were processed with Xcalibur 2.0.7 software (ThermoFisher). The maximal plasma concentrations (Cmax) and their time of occurrence (Tmax) were obtained directly from the measured data. Other pharmacokinetic parameters were calculated by non-compartment or compartment models using WinNonlin® software (v6.1, Pharsight). Unless otherwise stated, results were expressed as the mean ± SD. Statistical significance in differences of the means was determined by Student's t–test, with a significance level of P < 0.05.
Herbal materials and extracts.
The four component herbs, Puerariae Lobatae Radix (Ge-Gen, GG), Scutellariae Radix (Huang-Qin, HQ), Coptidis Rhizoma (Huang-Lian, HL), and Glycyrrhizae Radix et Rhizoma Praeparata cum Melle (Gan-Cao, GC) were purchased from Tianheng Pharmacy. GQD was prepared by decocting the four component herbs […]
pre-extraction of Ge-Gen using 200 mL of water for 0.5 h. The decoctions were combined, filtered, and concentrated in vacuum at 50 °C. GQD-GC was prepared using the same procedure, except that Gan-Cao was removed from the formula. Final concentration of the GQD-GC extract was equivalent to 1.0 g of the crude drugs per mL. For single herb extracts, the herbs were decocted in 8-fold volume of water for […]
Final concentrations of the extracts were 1.0 g/mL for Ge-Gen, and 0.5 g/mL for Huang-Qin, Huang-Lian and […]
For pharmacokinetic study, Male Sprague-Dawley rats (220-250 g) were obtained from the Laboratory Animal Center of Peking University Health Science Center. The […]
The rats had free access to tap water and soy-free custom diet (Ke’ao Xieli Co.). All procedures were in accordance with the National Institutes of Health Guide for the Care and Use of Laboratory Animals […]
Experimental details for the PK study
1. Preparation of internal standard solution, calibration standard solutions, and quality control solutions […]
internal standard solution. Reference standard compounds were dissolved in the internal standard solution to prepare individual stock solutions (1.0 mg/mL). These […]
each compound. The standard solution was then serially diluted to obtain calibration […]
Quality control stock solutions were prepared at three concentration levels as high QC (HQC), middle QC (MQC), and low QC (LQC), based on linear ranges of the analytes.
2.1. Sample preparation for pharmacokinetic study
The calibration standard and quality control solutions for pharmacokinetic study were […]

Compound | AUC(0-t) [ng·h/mL]
O=c1c(-c2ccc(O)cc2)coc2c(C3OC(COC4OCC(O)(CO)C4O)C(O)C(O)C3O)c(O)cc(O)c12 (centres unmarked) [Compound 6, genistein 8-C-apiofuranosyl(1,6)glucoside] | 168 ± 33.6
O=c1c(-c2ccc(O)cc2)coc2c([C@@H]3O[C@H](CO)[C@@H](O)[C@H](O)[C@H]3O)c(O)ccc12 [Compound 7, puerarin] | 5020 ± 536

Same assay, conditions: male, Sprague-Dawley, rat, plasma, po, 9.45 g/kg; Ge-Gen group: rats, oral 9.45 g/kg, plasma; read-out: AUClast

Compound | AUC(0-t) [ng·h/mL]
O=c1c(-c2ccc(O)cc2)coc2c([C@@H]3O[C@H](CO)[C@@H](O)[C@H](O)[C@H]3O)c(O)ccc12 [Compound 7, puerarin] | 5020 ± 536

Same assay, conditions: male, Sprague-Dawley, rat, plasma, po, 16.5 g/kg, GQD-GC group (GQD without Gan-Cao): rats, oral 16.5 g/kg, plasma; read-out: AUClast

Compound | AUC(0-t) [ng·h/mL]
O=c1c(-c2ccc(O)cc2)coc2c(C3OC(COC4OCC(O)(CO)C4O)C(O)C(O)C3O)c(O)cc(O)c12 (centres unmarked) [Compound 6, genistein 8-C-apiofuranosyl(1,6)glucoside] | 96.3 ± 105
O=c1c(-c2ccc(O)cc2)coc2c([C@@H]3O[C@H](CO)[C@@H](O)[C@H](O)[C@H]3O)c(O)ccc12 [Compound 7, puerarin] | 5610 ± 279

Same assay, conditions: male, Sprague-Dawley, rat, plasma, po, 18.9 g/kg, GQD group: rats, oral GQD extract 18.9 g/kg, plasma; read-out: AUClast

Compound | AUC(0-t) [ng·h/mL]
O=c1c(-c2ccc(O)cc2)coc2c(C3OC(COC4OCC(O)(CO)C4O)C(O)C(O)C3O)c(O)cc(O)c12 (centres unmarked) [Compound 6, genistein 8-C-apiofuranosyl(1,6)glucoside] | 98.8 ± 24.8
O=c1c(-c2ccc(O)cc2)coc2c([C@@H]3O[C@H](CO)[C@@H](O)[C@H](O)[C@H]3O)c(O)ccc12 [Compound 7, puerarin] | 8610 ± 766

Same assay, conditions: male, Sprague-Dawley, rat; GG (Ge-Gen) group: rats, oral extract 9.45 g/kg, plasma; read-out: Cmax

Compound | Cmax [ng/mL]
O=c1c(-c2ccc(O)cc2)coc2c(C3OC(COC4OCC(O)(CO)C4O)C(O)C(O)C3O)c(O)cc(O)c12 (centres unmarked) [Compound 6, genistein 8-C-apiofuranosyl(1,6)glucoside] | 11.3 ± 1.8
O=c1c(-c2ccc(O)cc2)coc2c([C@@H]3O[C@H](CO)[C@@H](O)[C@H](O)[C@H]3O)c(O)ccc12 [Compound 7, puerarin] | 488 ± 23.9

Same assay, conditions: male, Sprague-Dawley, rat; GG (Ge-Gen) group: rats, oral extract 9.45 g/kg, plasma; read-out: T1/2 (converted)

Compound | half-life [h]
O=c1c(-c2ccc(O)cc2)coc2c(C3OC(COC4OCC(O)(CO)C4O)C(O)C(O)C3O)c(O)cc(O)c12 (centres unmarked) [Compound 6, genistein 8-C-apiofuranosyl(1,6)glucoside] | 5.57 ± 3.48
O=c1c(-c2ccc(O)cc2)coc2c([C@@H]3O[C@H](CO)[C@@H](O)[C@H](O)[C@H]3O)c(O)ccc12 [Compound 7, puerarin] | 6.36 ± 4.39

Same assay, conditions: male, Sprague-Dawley, rat; GG (Ge-Gen) group: rats, oral extract 9.45 g/kg, plasma; read-out: Tmax

Compound | Tmax [h]
O=c1c(-c2ccc(O)cc2)coc2c(C3OC(COC4OCC(O)(CO)C4O)C(O)C(O)C3O)c(O)cc(O)c12 (centres unmarked) [Compound 6, genistein 8-C-apiofuranosyl(1,6)glucoside] | 0.73 ± 0.3
O=c1c(-c2ccc(O)cc2)coc2c([C@@H]3O[C@H](CO)[C@@H](O)[C@H](O)[C@H]3O)c(O)ccc12 [Compound 7, puerarin] | 0.59 ± 0.01

Same assay, conditions: male, Sprague-Dawley, rat; GQD group: rats, oral GQD extract 18.9 g/kg, plasma; read-out: Cmax

Compound | Cmax [ng/mL]
O=c1c(-c2ccc(O)cc2)coc2c(C3OC(COC4OCC(O)(CO)C4O)C(O)C(O)C3O)c(O)cc(O)c12 (centres unmarked) [Compound 6, genistein 8-C-apiofuranosyl(1,6)glucoside] | 11.3 ± 3.32
O=c1c(-c2ccc(O)cc2)coc2c([C@@H]3O[C@H](CO)[C@@H](O)[C@H](O)[C@H]3O)c(O)ccc12 [Compound 7, puerarin] | 577 ± 56.3

Same assay, conditions: male, Sprague-Dawley, rat; GQD group: rats, oral GQD extract 18.9 g/kg, plasma; read-out: T1/2 (converted)

Compound | half-life [h]
O=c1c(-c2ccc(O)cc2)coc2c(C3OC(COC4OCC(O)(CO)C4O)C(O)C(O)C3O)c(O)cc(O)c12 (centres unmarked) [Compound 6, genistein 8-C-apiofuranosyl(1,6)glucoside] | 6.77 ± 3.44
O=c1c(-c2ccc(O)cc2)coc2c([C@@H]3O[C@H](CO)[C@@H](O)[C@H](O)[C@H]3O)c(O)ccc12 [Compound 7, puerarin] | 5.58 ± 2.9

Same assay, conditions: male, Sprague-Dawley, rat; GQD group: rats, oral GQD extract 18.9 g/kg, plasma; read-out: Tmax

Compound | Tmax [h]
O=c1c(-c2ccc(O)cc2)coc2c(C3OC(COC4OCC(O)(CO)C4O)C(O)C(O)C3O)c(O)cc(O)c12 (centres unmarked) [Compound 6, genistein 8-C-apiofuranosyl(1,6)glucoside] | 8.39 ± 0.23
O=c1c(-c2ccc(O)cc2)coc2c([C@@H]3O[C@H](CO)[C@@H](O)[C@H](O)[C@H]3O)c(O)ccc12 [Compound 7, puerarin] | 1.2 ± 1.49

Same assay, conditions: male, Sprague-Dawley, rat; GQD-GC group (GQD without Gan-Cao): rats, oral 16.5 g/kg, plasma; read-out: Cmax

Compound | Cmax [ng/mL]
O=c1c(-c2ccc(O)cc2)coc2c(C3OC(COC4OCC(O)(CO)C4O)C(O)C(O)C3O)c(O)cc(O)c12 (centres unmarked) [Compound 6, genistein 8-C-apiofuranosyl(1,6)glucoside] | 12.1 ± 7.87
O=c1c(-c2ccc(O)cc2)coc2c([C@@H]3O[C@H](CO)[C@@H](O)[C@H](O)[C@H]3O)c(O)ccc12 [Compound 7, puerarin] | 416 ± 232

Same assay, conditions: male, Sprague-Dawley, rat; GQD-GC group (GQD without Gan-Cao): rats, oral 16.5 g/kg, plasma; read-out: T1/2 (converted)

Compound | half-life [h]
O=c1c(-c2ccc(O)cc2)coc2c(C3OC(COC4OCC(O)(CO)C4O)C(O)C(O)C3O)c(O)cc(O)c12 (centres unmarked) [Compound 6, genistein 8-C-apiofuranosyl(1,6)glucoside] | 2.15 ± 1.7
O=c1c(-c2ccc(O)cc2)coc2c([C@@H]3O[C@H](CO)[C@@H](O)[C@H](O)[C@H]3O)c(O)ccc12 [Compound 7, puerarin] | 8.29 ± 2.22

Same assay, conditions: male, Sprague-Dawley, rat; GQD-GC group (GQD without Gan-Cao): rats, oral 16.5 g/kg, plasma; read-out: Tmax

Compound | Tmax [h]
O=c1c(-c2ccc(O)cc2)coc2c(C3OC(COC4OCC(O)(CO)C4O)C(O)C(O)C3O)c(O)cc(O)c12 (centres unmarked) [Compound 6, genistein 8-C-apiofuranosyl(1,6)glucoside] | 1.56 ± 1.53
O=c1c(-c2ccc(O)cc2)coc2c([C@@H]3O[C@H](CO)[C@@H](O)[C@H](O)[C@H]3O)c(O)ccc12 [Compound 7, puerarin] | 0.52 ± 0.07

Same assay, conditions: rats, oral

Compound | bioavailability in the GQD group compared with the Ge-Gen group
O=c1c(-c2ccc(O)cc2)coc2c([C@@H]3O[C@H](CO)[C@@H](O)[C@H](O)[C@H]3O)c(O)ccc12 [Compound 7, puerarin] | higher
